Test results: US7090874B2, “Ligand for peroxisome proliferator-activated receptor” (Kaneka Corporation, priority 2001, dated 2006)

How the values were obtained:
[1] = test system: streptozotocin-induced diabetic rats; settings: diet containing 0.5% curcumin; cited from earlier work
KK-Ay mice = experiment: Effect in KK-Ay model mice of type-II diabetes mellitus (body weight, blood glucose); type: in vivo, mouse; settings: for Blood Glucose Level / Mouse Body weight: diet with 0.04% pioglitazone or 0.5% curcumin, mean ± SD
Procedure: KK-Ay mice, a model of genetically obese and type-II diabetic animals, were used to evaluate the effect of curcumin. Pioglitazone, a drug for treating diabetes mellitus, was used as a positive control.
KK-Ay mice (females, 6 weeks old) were divided into 3 groups (5 animals per group). By using a normal diet (product of Oriental Yeast Co. Ltd., Table 3) as a base feed, three types of feeds, i.e., a diet with out any additives, with pioglitazone and with curcumin, were prepared. Mice were placed in an environment in which they were freely accessible to a diet without any additives (control group), with pioglitazone (pioglitazone-added group) or with curcumin (curcumin-added group) for 4 weeks. Pioglitazone used was obtained by grinding Actos tablet 30 (30 mg pioglitazone per tablet, Takeda Chemical Industries Ltd.) in an agate mortar. The ground Actos tablet was then added to the normal diet at a dose of 0.04% pioglitazone. Curcumin was added to the normal diet at a dose of 0.5% curcumin.
During feeding, a small amount of blood was collected from the caudal vein of mice every week to determine blood glucose level using a simple bloodglucose level analyzer GLUTESTACE (Sanwa Kagaku Kenkyusho Co., Ltd.).

C57BL/6J mice = experiment: Effect in model mice of diet-induced obesity (adipose tissue weights); type: in vivo, mouse
Procedure: C57BL/6J mice (females, 8 weeks old) were freely accessible to a high fat/high sugar diet (Oriental Yeast Co., Ltd., Table 6) for 8 weeks to obtain dietary obese animals. By using a normal diet (Oriental Yeast Co. Ltd., Table 3) as a base feed, two types of feeds, i.e., a diet without any additives and with 0.5% curcumin, were prepared. Next, said mice were divided into 2 groups (7 animals per group), and each group was freely accessible to a diet without any additives (control group) or with 0.5% curcumin (curcumin group) for 4 weeks. After an overnight fasting, mice were subjected to abdominal section under ether anesthesia to collect blood from the abdominal aorta, and then sacrificed. Then, adipose tissues were collected from the tissues around uterus, kidney and mesentery, and their weights were determined. The sum of the weights of periuterine, perirenal and mesenteric adipose tissues was determined as the total amount of intra-abdominal adipose tissue.

rats = rats which received curcumin; cited from earlier work
[2] = biological target: T1, mouse PPARγ ligand binding domain (Mus musculus, UniProt P37238); experiment: PPARγ ligand activity: GAL4-mPPARγ LBD chimera luciferase reporter assay in CV-1 cells; type: cell-based; settings: for PPARγ ligand activities (dependence on concentration): 2-10 μg/ml; for PPARγ ligand activity: relative to untreated control (DMSO)=1.00, mean ± SD, n=4
T1 construct: expressed in transfected cells; host or cells: CV-1 cells (African green monkey kidney)
T1 sequence (P37238 174-475 isoform P37238-2): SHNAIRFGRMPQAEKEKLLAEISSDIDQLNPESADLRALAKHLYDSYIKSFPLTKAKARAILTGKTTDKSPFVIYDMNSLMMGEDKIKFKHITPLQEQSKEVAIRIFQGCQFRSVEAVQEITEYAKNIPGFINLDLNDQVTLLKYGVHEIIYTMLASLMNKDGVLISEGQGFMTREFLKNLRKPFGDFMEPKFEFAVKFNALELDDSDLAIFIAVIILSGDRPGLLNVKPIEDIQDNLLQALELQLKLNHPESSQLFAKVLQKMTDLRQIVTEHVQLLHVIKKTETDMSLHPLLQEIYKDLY
Procedure: CV-1 cells (cultured cells derived from male African green monkey kidney) were inoculated into a 96-well culture plate at 6×10^3 cells/well, and incubated at 37° C. for 24 hours under 5% CO2 conditions. As a medium, DMEM (Dulbecco's Modified Eagle Medium, product of GIBCO) containing 10% FBS (fetal bovine serum), 10 ml/L penicillin-streptomycin (5000 IU/ml and 5000 μg/ml, respectively, product of GIBCO), 37 mg/L ascorbic acid (product of Wako Pure Chemical Industries, Ltd.) was used. Cells were washed with OPTI-MEM (product of GIBCO), a serum-free medium, and transfected with pM-mPPARγ and 4×USAg-luc using LIPOFECTAMINE PLUS™ (product of GIBCO), a reagent for transfection of genes using a cationic lipid. […] The 4×UASg-luc is a reporter plasmid incorporated luciferase gene with 4-time-repeated responsive element (UASg) of GAL4 ligated thereto at the upstream end thereof. At approximately 24 hours after the transfection, the medium was replaced by a medium containing each sample (n=4) and cells were incubated for an additional 2 hours. Each sample used was dissolved in dimethyl sulfoxide (DMSO) and DMSO was used as an untreated control sample. […] Cells were washed with Ca, Mg-containing phosphate buffered saline (PBS+) and added with LUCLITE™ (product of Packard), a reagent for determination of luminescence using luciferase. Then, the luminescent intensity by expressed luciferase was determined in a TOPCOUNT™ Microplate Scintillation/Luminescence Counter (product of Packard).
The luminescent intensity was determined in the control group in the same way as in the test groups, but using pM (a plasmid lacking PPARγ ligand binding domain gene) instead of pM-mPPARγ. The ratio (test group/control group) of the average luminescent intensity between the test and control groups (n=4) was determined for each sample, and the relative activity of test sample. against the untreated control sample was determined as the PPARγ ligand activity of the sample.

[3] = diet-induced obese C57BL/6J mice, 0.5% curcumin diet for 4 weeks, mean ± SD

| Compound | Blood Glucose Level (KK-Ay mice; After 1 week) [mg/dL] | Mouse Body weight (KK-Ay mice; After 1 week) [g] | Blood Glucose Level (KK-Ay mice; After 2 weeks) [mg/dL] | Mouse Body weight (KK-Ay mice; After 2 weeks) [g] | Blood Glucose Level (KK-Ay mice; After 3 weeks) [mg/dL] | Mouse Body weight (KK-Ay mice; After 3 weeks) [g] | Blood Glucose Level (KK-Ay mice; After 4 weeks) [mg/dL] | Mouse Body weight (KK-Ay mice; After 4 weeks) [g] | Blood Glucose Level (KK-Ay mice; Start of feeding) [mg/dL] | Mouse Body weight (KK-Ay mice; Start of feeding) [g] | PPARγ ligand activities (dependence on concentration) [2] | PPARγ ligand activity ([2]; added concentration 2 μg/ml) | PPARγ ligand activity ([2]; added concentration 5 μg/ml) | PPARγ ligand activity ([2]; added concentration 10 μg/ml) | also measured |
| --- | --- | --- | --- | --- | --- | --- | --- | --- | --- | --- | --- | --- | --- | --- | --- |
| COc1cc(/C=C/C(=O)/C=C(O)/C=C/c2ccc(O)c(OC)c2)ccc1O [Compound 1, Curcumin] | 191 ± 18 | 34.7 ± 1.1 | 222 ± 46 | 39.8 ± 0.7 | 348 ± 125 | 42.8 ± 0.9 | 344 ± 105 | 44.7 ± 1.0 | 139 ± 7 | 25.5 ± 0.7 | concentration-dependent | 2.36 ± 0.94 | 3.67 ± 1.06 | 4.16 ± 1.10 | Cholesterol, triglyceride and phospholipid levels in blood [1]: reduced; Renal lesions associated with diabetes mellitus [1]: amelioration; Elevation of blood glucose level compared with control group (KK-Ay mice; 4 weeks feeding): suppressed significantly; Mouse body weight change compared with control group (KK-Ay mice; 4 weeks feeding): without any significant difference; Body weight compared with control group (C57BL/6J mice): no significant difference; Weights of periuterine, perirenal, mesenteric and intra-abdominal adipose tissues compared with control group (C57BL/6J mice): significantly reduced; Adipose tissue per body weight: Mesenteric adipose tissue (c) (C57BL/6J mice; [3]): 0.39 ± 0.11 % by weight; Adipose tissue per body weight: Perirenal adipose tissue (b) (C57BL/6J mice; [3]): 0.46 ± 0.15 % by weight; Adipose tissue per body weight: Periuterine adipose tissue (a) (C57BL/6J mice; [3]): 0.8 ± 0.21 % by weight; Body weight after feeding (C57BL/6J mice; [3]): 22.9 ± 0.9 g; Adipose tissue per body weight: Intra-abdominal adipose tissue (a + b + c) (C57BL/6J mice; sum of periuterine, perirenal and mesenteric, diet-induced obese C57BL/6J mice, 0.5% curcumin diet for 4 weeks, mean ± SD): 1.65 ± 0.42 % by weight; Activity of acyl-CoA oxidase (β-oxidation promotive enzyme) (rats): enhanced; Triglyceride accumulation in the liver (rats): inhibition |
| CCc1ccc(CCOc2ccc(CC3SC(=O)NC3=O)cc2)nc1 (stereo not drawn) [Pioglitazone, reference compound] | 163 ± 23 | 36.7 ± 1.0 | 182 ± 9 | 39.9 ± 1.2 | 166 ± 18 | 42.3 ± 1.2 | 153 ± 21 | 43.8 ± 1.4 | 151 ± 9 | 26.9 ± 1.0 |  |  |  |  |  |
| Bisdemethoxycurcumin [Compound 3] |  |  |  |  |  |  |  |  |  |  | concentration-dependent | 1.88 ± 0.33 | 3.55 ± 0.38 | 4.08 ± 0.46 |  |
| Demethoxycurcumin [Compound 2] |  |  |  |  |  |  |  |  |  |  | concentration-dependent | 2.17 ± 0.39 | 4.25 ± 0.77 | 4.41 ± 0.35 |  |
